System: influenza A/Singapore/1/57 virus
Test: microbe, parasite or virus in culture
Assay type: cell-based

1-methyl-2-(4-methylphenylsulfomethyl-3-carbethoxy-4-dimethylaminomethyl-5-oxy-6-bromindol
Percent of inhibition of OD 490 (A or B 0.3 μg/ml + Zanamivir 0.3 μg, added 2 hours after infection): 10%
Percent of inhibition of OD 490 (A or B 0.3 μg/ml + Zanamivir 1 μg, added 2 hours after infection): 15%
Percent of inhibition of OD 490 (A or B 0.3 μg/ml + Zanamivir 3.3 μg, added 2 hours after infection): 21%
Percent of inhibition of OD 490 (A or B 0.3 μg/ml + Zanamivir 10 μg, added 2 hours after infection): 30%
Percent of inhibition of OD 490 (A or B 0.3 μg/ml + Zanamivir 33 μg, added 2 hours after infection): 40%
Percent of inhibition of OD 490 (A or B 0.3 μg/ml alone (Zanamivir 0), added 2 hours after infection): no
Percent of inhibition of OD 490 (A or B 1 μg/ml + Zanamivir 0.3 μg, added 2 hours after infection): 21%
Percent of inhibition of OD 490 (A or B 1 μg/ml + Zanamivir 1 μg, added 2 hours after infection): 26%
Percent of inhibition of OD 490 (A or B 1 μg/ml + Zanamivir 3.3 μg, added 2 hours after infection): 30%
Percent of inhibition of OD 490 (A or B 1 μg/ml + Zanamivir 10 μg, added 2 hours after infection): 85%
Percent of inhibition of OD 490 (A or B 1 μg/ml + Zanamivir 33 μg, added 2 hours after infection): 83%
Percent of inhibition of OD 490 (A or B 1 μg/ml alone (Zanamivir 0), added 2 hours after infection): no
Percent of inhibition of OD 490 (A or B 3 μg/ml + Zanamivir 0.3 μg, added 2 hours after infection): 40%
Percent of inhibition of OD 490 (A or B 3 μg/ml + Zanamivir 1 μg, added 2 hours after infection): 45%
Percent of inhibition of OD 490 (A or B 3 μg/ml + Zanamivir 3.3 μg, added 2 hours after infection): 80%
Percent of inhibition of OD 490 (A or B 3 μg/ml + Zanamivir 10 μg, added 2 hours after infection): 90%
Percent of inhibition of OD 490 (A or B 3 μg/ml + Zanamivir 33 μg, added 2 hours after infection): 87%
Percent of inhibition of OD 490 (A or B 3 μg/ml alone (Zanamivir 0), added 2 hours after infection): no
Percent of inhibition of OD 490 (A or B 5 μg/ml + Zanamivir 0.3 μg, added 2 hours after infection): 52%
Percent of inhibition of OD 490 (A or B 5 μg/ml + Zanamivir 1 μg, added 2 hours after infection): 80%
Percent of inhibition of OD 490 (A or B 5 μg/ml + Zanamivir 3.3 μg, added 2 hours after infection): 75%
Percent of inhibition of OD 490 (A or B 5 μg/ml + Zanamivir 10 μg, added 2 hours after infection): 96%
Percent of inhibition of OD 490 (A or B 5 μg/ml + Zanamivir 33 μg, added 2 hours after infection): 95%
Percent of inhibition of OD 490 (A or B 5 μg/ml alone (Zanamivir 0), added 2 hours after infection): no
Percent of inhibition of OD 490 (A or B 10 μg/ml + Zanamivir 0.3 μg, added 2 hours after infection): 50%
Percent of inhibition of OD 490 (A or B 10 μg/ml + Zanamivir 1 μg, added 2 hours after infection): 75%
Percent of inhibition of OD 490 (A or B 10 μg/ml + Zanamivir 3.3 μg, added 2 hours after infection): 90%
Percent of inhibition of OD 490 (A or B 10 μg/ml + Zanamivir 10 μg, added 2 hours after infection): 100, 100%
Percent of inhibition of OD 490 (A or B 10 μg/ml + Zanamivir 33 μg, added 2 hours after infection): 100, 100%
Percent of inhibition of OD 490 (A or B 10 μg/ml alone (Zanamivir 0), added 2 hours after infection): 10%

1-methyl-2-(4-oxyethyl-phenylsulfomethyl)-3-carbethoxy-4-dimethylaminomethyl-5-oxy-6-bromindol
Percent of inhibition of OD 490 (A or C 0.3 μg/ml + Oseltamivir 0.4 μg, added 2 hours after infection): 15%
Percent of inhibition of OD 490 (A or C 0.3 μg/ml + Oseltamivir 1.2 μg, added 2 hours after infection): 16%
Percent of inhibition of OD 490 (A or C 0.3 μg/ml + Oseltamivir 4.1 μg, added 2 hours after infection): 18%
Percent of inhibition of OD 490 (A or C 0.3 μg/ml + Oseltamivir 12.3 μg, added 2 hours after infection): 35%
Percent of inhibition of OD 490 (A or C 0.3 μg/ml + Oseltamivir 41 μg, added 2 hours after infection): 40%
Percent of inhibition of OD 490 (A or C 0.3 μg/ml alone (Oseltamivir 0), added 2 hours after infection): no
Percent of inhibition of OD 490 (A or C 1 μg/ml + Oseltamivir 0.4 μg, added 2 hours after infection): 30%
Percent of inhibition of OD 490 (A or C 1 μg/ml + Oseltamivir 1.2 μg, added 2 hours after infection): 31%
Percent of inhibition of OD 490 (A or C 1 μg/ml + Oseltamivir 4.1 μg, added 2 hours after infection): 41%
Percent of inhibition of OD 490 (A or C 1 μg/ml + Oseltamivir 12.3 μg, added 2 hours after infection): 88%
Percent of inhibition of OD 490 (A or C 1 μg/ml + Oseltamivir 41 μg, added 2 hours after infection): 90%
Percent of inhibition of OD 490 (A or C 1 μg/ml alone (Oseltamivir 0), added 2 hours after infection): no
Percent of inhibition of OD 490 (A or C 3 μg/ml + Oseltamivir 0.4 μg, added 2 hours after infection): 35%
Percent of inhibition of OD 490 (A or C 3 μg/ml + Oseltamivir 1.2 μg, added 2 hours after infection): 37%
Percent of inhibition of OD 490 (A or C 3 μg/ml + Oseltamivir 4.1 μg, added 2 hours after infection): 60%
Percent of inhibition of OD 490 (A or C 3 μg/ml + Oseltamivir 12.3 μg, added 2 hours after infection): 91%
Percent of inhibition of OD 490 (A or C 3 μg/ml + Oseltamivir 41 μg, added 2 hours after infection): 100, 100%
Percent of inhibition of OD 490 (A or C 3 μg/ml alone (Oseltamivir 0), added 2 hours after infection): no
Percent of inhibition of OD 490 (A or C 5 μg/ml + Oseltamivir 0.4 μg, added 2 hours after infection): 50%
Percent of inhibition of OD 490 (A or C 5 μg/ml + Oseltamivir 1.2 μg, added 2 hours after infection): 40%
Percent of inhibition of OD 490 (A or C 5 μg/ml + Oseltamivir 4.1 μg, added 2 hours after infection): 96%
Percent of inhibition of OD 490 (A or C 5 μg/ml + Oseltamivir 12.3 μg, added 2 hours after infection): 96%
Percent of inhibition of OD 490 (A or C 5 μg/ml + Oseltamivir 41 μg, added 2 hours after infection): 100, 100%
Percent of inhibition of OD 490 (A or C 5 μg/ml alone (Oseltamivir 0), added 2 hours after infection): no
Percent of inhibition of OD 490 (A or C 10 μg/ml + Oseltamivir 0.4 μg, added 2 hours after infection): 46%
Percent of inhibition of OD 490 (A or C 10 μg/ml + Oseltamivir 1.2 μg, added 2 hours after infection): 65%
Percent of inhibition of OD 490 (A or C 10 μg/ml + Oseltamivir 4.1 μg, added 2 hours after infection): 95%
Percent of inhibition of OD 490 (A or C 10 μg/ml + Oseltamivir 12.3 μg, added 2 hours after infection): 95%
Percent of inhibition of OD 490 (A or C 10 μg/ml + Oseltamivir 41 μg, added 2 hours after infection): 98%
Percent of inhibition of OD 490 (A or C 10 μg/ml alone (Oseltamivir 0), added 2 hours after infection): 10%

1-methyl-2-(n-methyl-phenylsulfomethyl)-3-carbethoxy-4-dimethylaminomethyl-5-oxy-6-bromindol
Percent of inhibition of OD 490 (A or D 1 μg/ml + Amantadin 0.3 μg/ml, added 30 min prior to infection): 17%
Percent of inhibition of OD 490 (A or D 1 μg/ml + Amantadin 1 μg/ml, added 30 min prior to infection): 18%
Percent of inhibition of OD 490 (A or D 1 μg/ml + Amantadin 5 μg/ml, added 30 min prior to infection): 29%
Percent of inhibition of OD 490 (A or D 1 μg/ml + Amantadin 10 μg/ml, added 30 min prior to infection): 45%
Percent of inhibition of OD 490 (A or D 1 μg/ml + Remantadin 0.3 μg/ml, added 30 min prior to infection): 18%
Percent of inhibition of OD 490 (A or D 1 μg/ml + Remantadin 1 μg/ml, added 30 min prior to infection): 20%
Percent of inhibition of OD 490 (A or D 1 μg/ml + Remantadin 5 μg/ml, added 30 min prior to infection): 36%
Percent of inhibition of OD 490 (A or D 1 μg/ml + Remantadin 10 μg/ml, added 30 min prior to infection): 42%
Percent of inhibition of OD 490 (A or D 1 μg/ml alone (Amantadin 0), added 30 min prior to infection): 15%
Percent of inhibition of OD 490 (A or D 1 μg/ml alone (Remantadin 0), added 30 min prior to infection): 12%
Percent of inhibition of OD 490 (A or D 5 μg/ml + Amantadin 0.3 μg/ml, added 30 min prior to infection): 38%
Percent of inhibition of OD 490 (A or D 5 μg/ml + Amantadin 1 μg/ml, added 30 min prior to infection): 41%
Percent of inhibition of OD 490 (A or D 5 μg/ml + Amantadin 5 μg/ml, added 30 min prior to infection): 53%
Percent of inhibition of OD 490 (A or D 5 μg/ml + Amantadin 10 μg/ml, added 30 min prior to infection): 70%
Percent of inhibition of OD 490 (A or D 5 μg/ml + Remantadin 0.3 μg/ml, added 30 min prior to infection): 48%
Percent of inhibition of OD 490 (A or D 5 μg/ml + Remantadin 1 μg/ml, added 30 min prior to infection): 44%
Percent of inhibition of OD 490 (A or D 5 μg/ml + Remantadin 5 μg/ml, added 30 min prior to infection): 50%
Percent of inhibition of OD 490 (A or D 5 μg/ml + Remantadin 10 μg/ml, added 30 min prior to infection): 73%
Percent of inhibition of OD 490 (A or D 5 μg/ml alone (Amantadin 0), added 30 min prior to infection): 24%
Percent of inhibition of OD 490 (A or D 5 μg/ml alone (Remantadin 0), added 30 min prior to infection): 20%
Percent of inhibition of OD 490 (A or D 10 μg/ml + Amantadin 0.3 μg/ml, added 30 min prior to infection): 57%
Percent of inhibition of OD 490 (A or D 10 μg/ml + Amantadin 1 μg/ml, added 30 min prior to infection): 70%
Percent of inhibition of OD 490 (A or D 10 μg/ml + Amantadin 5 μg/ml, added 30 min prior to infection): 75%
Percent of inhibition of OD 490 (A or D 10 μg/ml + Amantadin 10 μg/ml, added 30 min prior to infection): 80%
Percent of inhibition of OD 490 (A or D 10 μg/ml + Remantadin 0.3 μg/ml, added 30 min prior to infection): 69%
Percent of inhibition of OD 490 (A or D 10 μg/ml + Remantadin 1 μg/ml, added 30 min prior to infection): 69%
Percent of inhibition of OD 490 (A or D 10 μg/ml + Remantadin 5 μg/ml, added 30 min prior to infection): 70%
Percent of inhibition of OD 490 (A or D 10 μg/ml + Remantadin 10 μg/ml, added 30 min prior to infection): 75%
Percent of inhibition of OD 490 (A or D 10 μg/ml alone (Amantadin 0), added 30 min prior to infection): 40%
Percent of inhibition of OD 490 (A or D 10 μg/ml alone (Remantadin 0), added 30 min prior to infection): 54%
